Reference: US11566007B2, “Ras inhibitors” (Revolution Medicines, Inc., priority 2019, dated 2023)
pEC50, pIC50: −log10 of the molar value. Read-outs that look alike come from different tables or passages of the source.

How the values were obtained:
[1] = tested on: NCI-H358 cells (K-Ras G12C); assay: Potency assay: pERK in NCI-H358 cells; type: cell-based, human; details: H358 KRAS G12C, read-out: pERK EC50
Experimental: The purpose of this assay is to measure the ability of test compounds to inhibit K-Ras in cells. […] This procedure measures a decrease in cellular pERK in response to test compounds.
NCI-H358 cells were grown and maintained using media and procedures recommended by the ATCC. On the day prior to compound addition, cells were plated in 384-well cell culture plates (40 μl/well) and grown overnight in a 37° C., 5% CO2 incubator. Test compounds were prepared in 10, 3-fold dilutions in DMSO, with a high concentration of 10 mM. On the day of assay, 40 nL of test compound was added to each well of cell culture plate using an Echo550 liquid handler (LabCyte®). Concentrations of test compound were tested in duplicate. After compound addition, cells were incubated 4 hours at 37° C., 5% CO2. Following incubation, culture medium was removed and cells were washed once with phosphate buffered saline.
In some experiments, cellular pERK level was determined using the AlphaLISA SureFire Ultra p-ERK1/2 Assay Kit (PerkinElmer). Cells were lysed in 25 μL lysis buffer, with shaking at 600 RPM at room temperature. […] After a 2-hour incubation in the dark, 5 μL donor mix was added, plate was sealed, and incubated 2 hours at room temperature. Signal was read on an Envision plate reader (PerkinElmer) using standard AlphaLISA settings. Analysis of raw data was carried out in Excel (Microsoft) and Prism (GraphPad). Signal was plotted vs. the decadal logarithm of compound concentration, and IC50 was determined by fitting a 4-parameter sigmoidal concentration response model.
In other experiments, cellular pERK was determined by In-Cell Western. […] Fixed cells were washed 4 times for 5 minutes with TBS containing 0.1% Triton X-100 (TBST) and then blocked with 100 μL Odyssey blocking buffer (LI-COR) for 60 minutes at room temperature. […] Cells were washed 4 times for 5 minutes with TBST. Secondary antibody (IR-800CW rabbit, LI-COR, diluted 1:800) and DNA stain DRAQS (LI-COR, diluted 1:2000) were added and incubated 1-2 hours at room temperature. Cells were washed 4 times for 5 minutes with TBST. Plates were scanned on a Li-COR Odyssey CLx Imager. Analysis of raw data was carried out in Excel (Microsoft) and Prism (Graph Pad). Signal was plotted vs. the decadal logarithm of compound concentration, and IC50 was determined by fitting a 4-parameter sigmoidal concentration response model.

NCI-H358 (K-Ras G12C) = assay: CellTiter-Glo cell viability assay, NCI-H358; type: cell-based, human; details: NCI-H358, 5-day treatment, class symbols, read-out: Additional H358 Cell Viability assay data (K-Ras G12C, IC50)
Experimental: Note—The following protocol describes a procedure for monitoring cell viability of K-Ras mutant cancer cell lines in response to a compound of the invention. Other RAS isoforms may be employed, though the number of cells to be seeded will vary based on cell line used.
Test compounds (132.5 nL) were directly dispensed into the assay plates containing cells. […] On day 5, assay plates and their contents were equilibrated to room temperature for approximately 30 minutes. […] Luminescence was measured using the PerkinElmer Enspire. Data were normalized by the following: (Sample signal/Avg. DMSO)*100. The data were fit using a four-parameter logistic fit.

Row | SMILES | pEC50 [1] | pIC50 (NCI-H358 (K-Ras G12C)) | pEC50 ([1]; Homo sapiens, NCI-H358) | pIC50 (NCI-H358 (K-Ras G12C); Homo sapiens, NCI-H358, 120 h)
1 | C=CC(=O)N1CC[C@H](C(=O)N(C)[C@H](C(=O)N[C@H]2Cc3cc(O)cc(c3)-c3ccc4c(c3)c(c(-c3cnccc3COC)n4CC)CC(C)(C)COC(=O)[C@@H]3CCCN(N3)C2=O)C(C)C)C1 [Example A28, (2S)-N-[(8S,14S)-22-ethyl-4-hydroxy-21-[4-(methoxymethyl)pyridin-3-yl]-18,18-dimethyl-9,15-dioxo-16-oxa-10,22,28-triazapentacyclo[18.5.2.1^[2,6].1^[10,14].0^[23,27]]nonacosa-1(26),2,4,6(29),20,23(27),24-heptaen-8-yl]-3-methyl-2-[N-methyl-1-[(3S)-1-(prop-2-enoyl)pyrrolidin-3-yl]formamido]butanamide] | > 5.30 | > 8.00 |  | 
2 | C=CC(=O)N1CC[C@H](C(=O)N(C)[C@H](C(=O)N[C@H]2Cc3cc(O)cc(c3)-c3ccc4c(c3)c(c(-c3ccccc3[C@@H](C)OC)n4CC)CC(C)(C)COC(=O)[C@@H]3CCCN(N3)C2=O)C(C)C)C1 [Example A29] |  |  | > 5.30 | 6.00 to 7.00
3 | C=CC(=O)N1CC[C@H](C(=O)N(C)[C@H](C(=O)N[C@H]2Cc3cc(O)cc(c3)-c3ccc4c(c3)c(c(-c3cccc(CN(C)C)c3)n4CC)CC(C)(C)COC(=O)[C@@H]3CCCN(N3)C2=O)C(C)C)C1 [Example A30] |  |  | > 5.30 | 7.00 to 8.00
4 | C=CC(=O)N1CC2(CCN([C@H](C(=O)N[C@H]3Cc4cc(O)cc(c4)-c4ccc5c(c4)c(c(-c4ccccc4CCOC)n5CC)CC(C)(C)COC(=O)[C@@H]4CCCN(N4)C3=O)C(C)C)C2=O)C1 [Example A31] |  |  | > 5.30 | 7.00 to 8.00
5 | C=CC(=O)N1CCC(C(=O)N(C)[C@H](C(=O)N[C@H]2Cc3cc(O)cc(c3)-c3ccc4c(c3)c(c(-c3ccccc3CN(C)C)n4CC)CC(C)(C)COC(=O)[C@@H]3CCCN(N3)C2=O)C(C)C)CC1 [Example A33] |  |  | > 5.30 | 6.00 to 7.00
6 | C=CC(=O)N1CC[C@H](C(=O)N(C)[C@H](C(=O)N[C@H]2Cc3cc(O)cc(c3)-c3ccc4c(c3)c(c(-c3ccc5cc(CN(C)C)n(C)c5c3)n4CC)CC(C)(C)COC(=O)[C@@H]3CCCN(N3)C2=O)C(C)C)C1 [Example A35] |  |  | > 5.30 | 7.00 to 8.00
7 | CCn1c(-c2ccccc2CCOC)c2c3cc(ccc31)-c1cc(O)cc(c1)C[C@H](NC(=O)[C@H](C(C)C)N(C)C(=O)[C@H]1CCN(C(=O)C#CCN(C)C)C1)C(=O)N1CCC[C@H](N1)C(=O)OCC(C)(C)C2 [Example A38] |  |  | > 5.30 | > 8.00
8 | C=CC(=O)N1CC[C@H](C(=O)N(C)[C@H](C(=O)N[C@H]2Cc3cc(O)cc(c3)-c3ccc4c(c3)c(c(-c3ccc(C5CCN(C)CC5)cc3)n4CC)CC(C)(C)COC(=O)[C@@H]3CCCN(N3)C2=O)C(C)C)C1 [Example A39] |  |  | > 5.30 | 7.00 to 8.00
9 | C=CC(=O)N1CC[C@H](C(=O)N(C)[C@H](C(=O)N[C@H]2Cc3cc(O)cc(c3)-c3ccc4c(c3)c(c(-c3ccc5c(c3)CCN(C)C5)n4CC)CC(C)(C)COC(=O)[C@@H]3CCCN(N3)C2=O)C(C)C)C1 [Example A40] |  |  | > 5.30 | 7.00 to 8.00
10 | C=CC(=O)N1C[C@H](C)[C@H](C(=O)N(C)[C@H](C(=O)N[C@H]2Cc3cc(O)cc(c3)-c3ccc4c(c3)c(c(-c3ccccc3CCOC)n4CC)CC(C)(C)COC(=O)[C@@H]3CCCN(N3)C2=O)C(C)C)C1 [Example A41] |  |  | > 5.30 | 7.00 to 8.00
11 | C=CC(=O)N1CC[C@H](C(=O)N(C)[C@H](C(=O)N[C@H]2Cc3cc(N)cc(c3)-c3ccc4c(c3)c(c(-c3ccccc3COC)n4CC)CC(C)(C)COC(=O)[C@@H]3CCCN(N3)C2=O)C(C)C)C1 [Example A42] |  |  | > 5.30 | 6.00 to 7.00
12 | C=CC(=O)N1C[C@H](C)[C@H](C(=O)N(C)[C@H](C(=O)N[C@H]2Cc3cc(O)cc(c3)-c3ccc4c(c3)c(c(-c3ccccc3CN(C)C)n4CC)CC(C)(C)COC(=O)[C@@H]3CCCN(N3)C2=O)C2CCCC2)C1 [Example A43] |  |  | > 5.30 | 7.00 to 8.00
